Measurements as given in patent publication US4778797A, “Organo-silicon compounds, process for the manufacture of same, and anti-tumor agent comprising the compound” (Sanwa Kagaku Kenkyusho Co., Ltd., priority 1984, dated 1988).
≈ marks a conversion by molar mass, not a printed value. Like-named read-outs stand apart in the source and are kept apart here.

Experiments:
B-16 melanoma = assay: Anti-tumor action to B-16 melanoma; format: in vivo, BDF1 female mice; settings: oral, tumor weight at 21st day; for inhibition in vivo at 250 mg/kg/day: 250 mg/kg/day × 3
Text: B-16 melanoma (1×10^5 cells) was transplanted under skin of BDF1 female mice (age of about 5 weeks), and each of testing compounds was orally dosed at 1st, 5th and 9th day after the transplantation. At 21st day after the transplantation, the mice were killed to measure a weight of the cancerous tumor and to finally determine an inhibition ratio.

KB cells = assay: Suppression of KB cell proliferation in vitro; format: cell-based; settings: Homo sapiens, 72 h, 3 days exposure, Trypan Blue dye-exclusion, read-out: KB IC50 (50% inhibition density to tumor cell proliferation)
Procedure: In a cultivation device (5% CO2, 37° C.), KB cells (1×10^4 cells) were cultivated for 24 hours in a culture tube with 1 ml of Eagle culture medium added 10% ox serum, the used culture medium was thrown away to change with a fresh culture medium (0.9 ml), and then 0.1 ml of a similar culture fluid containing each testing compound prepared by the process as described in the Examples was added to cultivate the same for further 3 days. Thereafter, living cells were dyed with Tripan Blue and measured same through a dye-exclusion method.
A control was treated in a manner similar to the above, except that a culture fluid containing no compound of the invention was added.
50% inhibition density (IC50) to the tumor cell proliferation was decided through the tests between the testing group and the control group to obtain results as shown in following Table 1.

Colon-38 carcinoma = assay: Anti-tumor action to Colon-38 carcinoma; format: in vivo, BDF1 mice; settings: oral, tumor weight at 28th day
Procedure: 0.02 ml of 10(W/V)% cell suspension prepared from a solid cancer cell (Colon-38 carcinoma) were transplanted under skin of BDF1 mice (20-21 g, age of about 5 weeks), and each of testing compounds was orally dosed to the mice at 1st, 5th and 9th day after the transplantation. A major and minor axes of the cancerous tumor were measured at 11th, 14th, 21st, 25th and 28th day after the transplantation to calcurate volume of the tumor in accordance with the following.
At 28th day from the transplantation, the mice were killed and each of the cancerous tumors was extracted to measure its weight and to determine an inhibitation ratio in comparison with a non-treated control group.

L-1210 leukemia = assay: Anti-tumor action to L-1210 leukemia; format: in vivo, BDF1 female mice; settings: Mus musculus, L1210, oral; for ILS at 250 mg/kg/day: 250 mg/kg/day × 3 (1st, 5th, 9th day); for ILS at 500 mg/kg/day: 500 mg/kg/day × 3 (1st, 5th, 9th day)
Procedure: L-1210 leukemia cell (1×10^5 cells) was transplanted in a abdominal cavity of BDF1 female mice (20-21 g, age of about 5 weeks), and each of testing compounds was orally dosed in 250 mg/kg or 500 mg/kg at 1st, 5th and 9th day after the transplantation to check days of life of the mice. [formula]

Lewis lung carcinoma = assay: Anti-tumor action to Lewis lung carcinoma (primary tumor weight and metastasis); format: in vivo, BDF1 mice; settings: Mus musculus, po, 504 h
Text: Lewis lung carcinoma (1×10^5 cells) was transplanted under skin of right ear of BDF1 mice (age of about 5 weeks), and each of testing compounds was orally dosed 10 times from 1st to 10th day after the transplantation. At 21st day after the transplantation, the mice were killed to measure a weight of the primarly tumor and to extract a lung. The lung was fixed in a conventional manner to count a number of metastasis on cancerous cells with use of a stereomicroscope having a low magnification. An anti-tumor action of each compound was expressed with an inhibition in weight of the primarly tumor and an inhibition of the metastasis.

MM-46 adenocarcinoma = assay: Anti-tumor action to MM-46 adenocarcinoma; format: in vivo, C3H/He female mice; settings: oral, 250 mg/kg/day × 3 (1st, 5th, 9th day); days to death, testing vs control group
Text: MM-46 adenocarcinoma (1×10^6 cells) was transplanted under skin of C3H/He female mice (age of about 5 weeks), and each of testing compounds was orally dosed at 1st, 5th and 9th day after the transplantation to check days of life on the mice.
T: days to death on testing group, and
C: days to death on control group.

Acute toxicity = format: in vivo, CrJ/CDI female mice; settings: mouse, in vivo; oral gavage, suspended in 0.1% P-1570, female mice, 21 days observation
Procedure: Each of testing compounds suspended in 0.1% P-1570 was orally and forcedly dosed through a gastric probe to CrJ/CDI female mice (21 to 22 g, age of about 5 weeks). An identification number was given to each mouse, and a weighing and observation on general behavior were carried out just before the dosage and each day after the same. Each of died mice was subjected without delay to an autopsy to check the same, more particularly in detail on enterona. All of living mice were killed at 21st day from the dosage to carry out an autopsy for checking the same, more particularly on entrails.
An LD50 was calculated in accordance with the Leed and Munch's method.
A similar test was carried out on each controls of 1-[2-[(2-trimethylsilylethyl)thio]ethylcarbamoyl]-5-fluorouracil and 1-hexylcarbamoyl-5-fluorouracil (HCFU) which is one of exemplary anti-tumor agents.

[1] = 13.5 mg/kg/day × 10 + Amputation, 21st day, read-out: Inhibition Ratio weight LLC
[2] = 13.5 mg/kg/day × 10 + Amputation, lung, 21st day, printed in parentheses, read-out: Inhibition Ratio metastasis
[3] = 27 mg/kg/day × 10 + Amputation, 21st day, read-out: Inhibition Ratio weight LLC
[4] = 27 mg/kg/day × 10 + Amputation, lung, 21st day, printed in parentheses, read-out: Inhibition Ratio metastasis
[5] = 27 mg/kg/day × 10, 21st day, read-out: Inhibition Ratio weight LLC
[6] = 27 mg/kg/day × 10, lung, 21st day, read-out: Inhibition Ratio metastasis
[7] = 54 mg/kg/day × 10, 21st day, read-out: Inhibition Ratio weight LLC
[8] = 54 mg/kg/day × 10, lung, 21st day, read-out: Inhibition Ratio metastasis
[9] = Mus musculus, B16, 504 h, 300 mg/kg/day × 3, read-out: B-16 melanoma Inhibition ratio
[10] = Mus musculus, B16, 504 h, read-out: B-16 melanoma Inhibition ratio

| Structure (SMILES) | IC50 (KB cells) [µg/mL] | ILS at 250 mg/kg/day (L-1210 leukemia; read-out: L-1210 ILS) [%] | ILS at 250 mg/kg/day (L-1210 leukemia; read-out: L-1210 Judgement) [%] | ILS at 500 mg/kg/day (L-1210 leukemia; read-out: L-1210 ILS) [%] | ILS at 500 mg/kg/day (L-1210 leukemia; read-out: L-1210 Judgement) [%] | inhibition in vivo at 13.5 mg/kg/day (Lewis lung carcinoma; [1]) [%] | inhibition in vivo at 13.5 mg/kg/day (Lewis lung carcinoma; [2]) [%] | inhibition in vivo at 27 mg/kg/day (Lewis lung carcinoma; [3]) [%] | inhibition in vivo at 27 mg/kg/day (Lewis lung carcinoma; [4]) [%] | inhibition in vivo at 27 mg/kg/day (Lewis lung carcinoma; [5]) [%] | inhibition in vivo at 27 mg/kg/day (Lewis lung carcinoma; [6]) [%] | inhibition in vivo at 54 mg/kg/day (Lewis lung carcinoma; [7]) [%] | inhibition in vivo at 54 mg/kg/day (Lewis lung carcinoma; [8]) [%] | inhibition in vivo at 300 mg/kg/day (B-16 melanoma; [9]) [%] | LD50 at 504 h (Acute toxicity) [mg/kg] | inhibition in vivo at 250 mg/kg/day (B-16 melanoma; [10]) [%] | also measured |
| --- | --- | --- | --- | --- | --- | --- | --- | --- | --- | --- | --- | --- | --- | --- | --- | --- | --- |
| CC(C)[Si](C)(C)CCSCCNC(=O)n1cc(F)c(=O)[nH]c1=O [Example 5, 5-Fluoro-3,4-dihydro-N-[2-[[2-(isopropyldimethylsilyl)ethyl]thio]ethyl]-2,4-dioxo-1(2H)-pyrimidinecarboxamide] | 4 (≈ 11.1 µM) | 51 | 25 to 50 | 106 | ≥ 100 | 34.7 | 15.4 | 35.8 | > 39.5 | 7.1 | 78.4 | 34.9 | 83 |  |  |  | B-16 melanoma Inhibition ratio (B-16 melanoma; 300 mg/kg/day × 3): 79.7%; colon-38 Inhibition ratio (Colon-38 carcinoma; 289 mg/kg/day × 3): 89.8%; inhibition in vivo at 13.5 mg/kg/day (Lewis lung carcinoma; 13.5 mg/kg/day × 10, 21st day, read-out: Inhibition Ratio weight LLC): 0%; inhibition in vivo at 13.5 mg/kg/day (Lewis lung carcinoma; 13.5 mg/kg/day × 10, lung, 21st day, read-out: Inhibition Ratio metastasis): 19.3%; MM-46 adenocarcinoma T/C × 100 (MM-46 adenocarcinoma): 162% |
| CC[Si](CC)(CC)CCSCCNC(=O)n1cc(F)c(=O)[nH]c1=O [Example 2, 5-Fluoro-3,4-dihydro-2,4-dioxo-N-[2-[[(2-triethylsilyl)ethyl]thio]ethyl]-1(2H)-pyrimidinecarboxamide] | 13 (≈ 34.6 µM) | 19 | < 25 | 96 | 50 to 100 |  |  |  |  |  |  |  |  | 47.2 | 1540 |  | inhibition in vivo at 300 mg/kg/day (Colon-38 carcinoma; Mus musculus, 672 h, 300 mg/kg/day × 3, read-out: colon-38 Inhibition ratio): 71.9%; inhibition in vivo at 14 mg/kg/day (Lewis lung carcinoma; 14 mg/kg/day × 10, 21st day, read-out: Inhibition Ratio weight LLC): 0%; inhibition in vivo at 14 mg/kg/day (Lewis lung carcinoma; 14 mg/kg/day × 10, lung, 21st day, read-out: Inhibition Ratio metastasis): 45.2% |
| C[Si](C)(C)CCCSCCCNC(=O)n1cc(F)c(=O)[nH]c1=O [Example 10, 5-Fluoro-3,4-dihydro-2,4-dioxo-N-[3-[[3-(trimethylsilyl)propyl]thio]propyl]-1(2H)-pyrimidinecarboxamide] | 10 (≈ 27.7 µM) | 49 | 25 to 50 | 111 | ≥ 100 |  |  |  |  |  |  |  |  |  | 2170 | 15.2 | inhibition in vivo at 125 mg/kg/day (B-16 melanoma; Mus musculus, B16, 504 h, 125 mg/kg/day × 3, read-out: B-16 melanoma Inhibition ratio): 38.1%; inhibition in vivo at 289 mg/kg/day (Colon-38 carcinoma; Mus musculus, 672 h, 289 mg/kg/day × 3, read-out: colon-38 Inhibition ratio): 89.5% |
| CCCC[Si](C)(C)CCSCCNC(=O)n1cc(F)c(=O)[nH]c1=O [Example 6, N-[2-[[2-(Butyldimethylsilyl)ethyl]thio]ethyl]-5-fluoro-3,4-dihydro-2,4-dioxo-1(2H)-pyrimidinecarboxamide] | 12 (≈ 32 µM) | 35 | 25 to 50 | 73 | 50 to 100 | 37.3 | 18.3 | 30.9 | 23.1 | 39.6 | 92.6 | 38 | 95.1 | 53.5 |  |  | colon-38 Inhibition ratio (Colon-38 carcinoma; 300 mg/kg/day × 3): 81.2% |
| C[Si](C)(C)CCSCCCNC(=O)n1cc(F)c(=O)[nH]c1=O [Example 8, 5-Fluoro-3,4-dihydro-2,4-dioxo-N-[3-[[2-(trimethylsilyl)ethyl]thio]propyl]-1-(2H)-pyrimidinecarboxamide] | 7 (≈ 20.1 µM) | 27 | 25 to 50 | 70 | 50 to 100 |  |  |  |  |  |  |  |  |  | 1360 | 4.3 | inhibition in vivo at 278 mg/kg/day (Colon-38 carcinoma; Mus musculus, 672 h, 278 mg/kg/day × 3, read-out: colon-38 Inhibition ratio): 78%; inhibition in vivo at 13 mg/kg/day (Lewis lung carcinoma; 13 mg/kg/day × 10 + Amputation, 21st day, read-out: Inhibition Ratio weight LLC): 33.3%; inhibition in vivo at 13 mg/kg/day (Lewis lung carcinoma; 13 mg/kg/day × 10 + Amputation, lung, 21st day, printed in parentheses, read-out: Inhibition Ratio metastasis): 18.4%; inhibition in vivo at 13 mg/kg/day (Lewis lung carcinoma; 13 mg/kg/day × 10, 21st day, read-out: Inhibition Ratio weight LLC): 0%; inhibition in vivo at 13 mg/kg/day (Lewis lung carcinoma; 13 mg/kg/day × 10, lung, 21st day, read-out: Inhibition Ratio metastasis): 53%; inhibition in vivo at 26 mg/kg/day (Lewis lung carcinoma; 26 mg/kg/day × 10 + Amputation, 21st day, read-out: Inhibition Ratio weight LLC): 64.9%; inhibition in vivo at 26 mg/kg/day (Lewis lung carcinoma; 26 mg/kg/day × 10 + Amputation, lung, 21st day, printed in parentheses, read-out: Inhibition Ratio metastasis): 33.6%; inhibition in vivo at 26 mg/kg/day (Lewis lung carcinoma; 26 mg/kg/day × 10, 21st day, read-out: Inhibition Ratio weight LLC): 26.2%; inhibition in vivo at 26 mg/kg/day (Lewis lung carcinoma; 26 mg/kg/day × 10, lung, 21st day, read-out: Inhibition Ratio metastasis): 92.5% |
